In patent publication US20170234881A1, “METHODS OF DIAGNOSING AND TREATING CANCER” (INSERM ( INSTITUT NATIONAL DE LA SANTÉ ET DE LA RECHERCHE …, priority 2014, published 2017):

What was measured:
[1] = system: TS/A tumors; assay: Growth of TS/A tumors implanted s.c. into mice; type: in vivo; settings: after 13 days, s.c. every day, Tam 56 mg/kg or DDA 20 mg/kg alone
Method: FIG. 2. OCDO is a tumor promoter in vitro and in vivo and its inhibition contributes to the anti-tumor effects of Tam and DDA. (A, B) Histograms representing the effect of OCDO or 17β-estrogen (E2) on MCF7 (A) and TS/A (B) cell proliferation after 24 h treatment using a colorimetric immunoassay measuring BrDU incorporation in DNA (C, D) Histogram representing the effect of OCDO on MCF7 (C) and TS/A (D) cell invasion. Data are the mean of three separate experiments (±s.e.m), *P<0.05, **P<0.01, ***P<0.001 (Student's t-test). (E, F) Mice were implanted s.c. with MCF7 (E) or TS/A (F) cells and animals (8 per group) were treated s.c. every day starting on the day of implantation with either the solvent vehicle or OCDO (16 μg/kg for MCF7 or 50 μg/kg for TS/A). Animals were monitored for tumour growth twice a week. The data are representative of three independent experiments. The mean tumor volume±s.e.m is shown, *P<0.05, **P<0.01, ***P<0.001 (analysis of variance (ANOVA), Dunnett's post test). (G) Mean (±s.e.m) of Ki67 positive cell number determined from IHC staining of MCF7 tumor sections from (E), n=8, *P<0.05 (Student's t-test) using HistoQuant, Pannoramic Viewer (3DHistech). (H) Representative Ki67 staining of TS/A tumor sections from (F) showing increased staining in OCDO-treated tumor compared with control-treated tumor. (I, J, K). Murine E0771(I), or human MDA-MB231 (J) or MDA-MB468 (K) cells implanted s.c. into mice (8 per group) and animals were treated s.c. with either the solvent vehicle or OCDO (16 μg/kg for MDA-MB-231 and MDA-MB-468 or 50 μg/kg for E0771). The data are representative of two independent experiments. Statistical analysis was performed as in E and F. (L) Mice were implanted s.c. with TS/A cells and animals (8 per group) were treated s.c. every day with either the solvent vehicle, OCDO (50 μg/kg), Tam (56 mg/kg), DDA (20 mg/kg) or the combination of Tam (56 mg/kg) +OCDO (50 μg/kg) or DDA (20 mg/kg)+OCDO (50 μg/kg). The data are representative of three independent experiments. Statistical analysis was performed as in E and F.
Exponentially growing MCF7, ShMCF7, E0771, MDA-MB231, MDA-MB468 and TS/A cells were collected, washed twice in PBS and resuspended in PBS. TS/A and E9771 tumours were prepared by subcutaneous transplantation of 35×10^3 cells or 3×10^5 cells respectively in 100 μl PBS into the flank of BALB/c or C57B16 mice. For other tumors, 5 to 10×10^6 cells in 200 μl PBS/matrigel (1/1) were injected into the flank of NMRI nude mice. Animals were treated as indicated in the legends. Animals were examined daily, and body weights were measured twice per week. In all the experiments, the tumor volume was determined by direct measurement with a caliper and was calculated using the formula (width^2×length)/2. Tumors were either frozen in liquid nitrogen or fixed in 10% neutral-buffered formalin and embedded in paraffin for immunohistochemical analysis. Paraffin sections were stained with haematoxylin and eosin for histomorphological analyses. Immunohistochemical staining was done on paraffin-embedded tissue sections, using a specific Ki67 antibody (Dako).
We then assayed the anti-growth effect of Tam or DDA against TS/A tumors in the absence and presence of OCDO. As above, TS/A tumors implanted into immunocompetent mice were treated s.c. every day either with either the solvent vehicle (control), OCDO (50 μg/kg), Tam (56 mg/kg), DDA (20 mg/kg) or the combination of Tam (56 mg/kg)+OCDO (50 μg/kg) or DDA (20 mg/kg) +OCDO (50 μg/kg).

[2] = system: shHSD2 MCF7 cells; assay: Proliferation of shHSD2 MCF7 cells (BrDU); type: cell-based, human; settings: sh11HSD2 MCF7 cells, 24 h; OCDO 5 μM; cortisone increasing concentrations
Method: FIG. 7. Knock-down of 11βHSD2 decreases cell proliferation, invasion and survival in MCF7 cells as well as tumor growth and OCDO reverses these effects. shC or shHSD2 MCF7 cells were analyzed as followed: (A) The proliferation of sh-C or shHSD2 cells treated or not with OCDO 5 μM 24 h was measured using quantification of DNA BrDU incorporation as described in FIG. 2A. (B) The proliferation of sh-C or shHSD2 cells treated or not with increasing concentration of cortisone for 24 h was measured as in (A). (C) The invasiveness of sh-C or shHSD2 cells treated or not with OCDO 5 μM for 72 h was assayed using matrigel-coated filters. (D) the formation of colony by sh-C or shHSD2 cells treated or not with OCDO 1 μM was quantified as described in FIG. 6F. […] Animals were monitored for tumor growth twice a week. […] (F) Mean (±s.e.m) of Ki67 positive cell number determined from IHC staining of shC or shHSD2 MCF7 tumor sections from (E), n=8, *P<0.05 (Student's t-test) using HistoQuant, Pannoramic Viewer (3DHistech).
MCF7 or HEK293T cells (5×10^6 cells) were transfected with 5 μg of the indicated plasmid using the NEON Transfection System and according to the manufacturer's recommendations. […] Several clones were analyzed by immunoblot analysis and real time RT-qPCR for the knock down of the expression of the protein of interest. […]

| Structure (SMILES) | inhibition of TS/A tumor growth compared with the control group [1] | effect on the inhibition of cell proliferation induced by 11βHSD2 knock-down [2] |
| --- | --- | --- |
| CC(C)CCCC(C)[C@H]1CCC2C3C[C@@H](NCCc4cnc[nH]4)[C@@]4(O)C[C@@H](O)CC[C@]4(C)C3CC[C@@]21C (stereo partly drawn) [DDA, 5-hydroxy-6-[2-(1H-imidazol-4-yl)ethylamino]cholestan-3-ol, reference compound] | 33% | – |
| CC/C(=C(\c1ccccc1)c1ccc(OCCN(C)C)cc1)c1ccccc1 [Tam, (Z)-2-[4-(1,2-diphenylbut-1-enyl)phenoxy]-N,N-dimethylethanamine, reference compound] | 31% | – |
| C[C@]12CCC(=O)C=C1CC[C@@H]1[C@@H]2C(=O)C[C@@]2(C)[C@H]1CC[C@]2(O)C(=O)CO [cortisone, reference compound] | – | did not |
